Experimental data reported in the CheMixHub viscosity set.
Several values for one entry are separate records, joined by “and”; a condition that tells them apart may be missing. Identical values can stand only once.

Test: xn = mol fraction of the nth substance listed

NCCCC[C@H](N)C(=O)O + O
viscosity [mPa·s], 101 kPa
Details	293.15 K	298.15 K	303.15 K	308.15 K	313.15 K
x1 = 0.006	1.261	1.129	1.016	0.9447	0.8984
x1 = 0.014	1.324	1.194	1.079	1.013	0.9598

O=C1O[C@H]([C@@H](O)CO)C(O)=C1O + O
Details	viscosity
293.15 K, 101 kPa, x1 = 0.00359	1.078 mPa·s and 1.081 mPa·s and 1.077 mPa·s
293.15 K, 101 kPa, x1 = 0.005375	1.124 mPa·s and 1.122 mPa·s and 1.122 mPa·s
293.15 K, 101 kPa, x1 = 0.007156	1.162 mPa·s
293.15 K, 101.3 kPa, x1 = 0.0001803	1.013 mPa·s
293.15 K, 101.3 kPa, x1 = 0.00036	1.021 mPa·s
293.15 K, 101.3 kPa, x1 = 0.0005398	1.029 mPa·s
298.15 K, 101 kPa, x1 = 0.000364	0.899 mPa·s and 0.8985 mPa·s
298.15 K, 101 kPa, x1 = 0.000657	0.904 mPa·s and 0.9039 mPa·s
298.15 K, 101 kPa, x1 = 0.001	0.823 mPa·s
298.15 K, 101 kPa, x1 = 0.00125	0.916 mPa·s and 0.9161 mPa·s
298.15 K, 101 kPa, x1 = 0.00155	0.922 mPa·s and 0.9216 mPa·s
298.15 K, 101 kPa, x1 = 0.001665	0.9245 mPa·s
298.15 K, 101 kPa, x1 = 0.001856	0.927 mPa·s and 0.9273 mPa·s
298.15 K, 101 kPa, x1 = 0.002776	0.9451 mPa·s
298.15 K, 101 kPa, x1 = 0.003	0.835 mPa·s
298.15 K, 101 kPa, x1 = 0.005	0.847 mPa·s
298.15 K, 101 kPa, x1 = 0.005396	0.9979 mPa·s
298.15 K, 101 kPa, x1 = 0.009999	1.1 mPa·s
298.15 K, 101.3 kPa, x1 = 0.0001803	0.905 mPa·s
298.15 K, 101.3 kPa, x1 = 0.00036	0.913 mPa·s
298.15 K, 101.3 kPa, x1 = 0.0005398	0.918 mPa·s
303.15 K, 101 kPa, x1 = 0.001798	0.8267 mPa·s and 0.825 mPa·s
303.15 K, 101 kPa, x1 = 0.0018	0.8248 mPa·s
303.15 K, 101 kPa, x1 = 0.00359	0.8564 mPa·s and 0.8524 mPa·s
303.15 K, 101 kPa, x1 = 0.005375	0.8897 mPa·s and 0.8876 mPa·s and 0.8876 mPa·s
303.15 K, 101 kPa, x1 = 0.007154	0.9213 mPa·s and 0.9197 mPa·s
303.15 K, 101 kPa, x1 = 0.007156	0.916 mPa·s
303.15 K, 101.3 kPa, x1 = 0.0001803	0.812 mPa·s
303.15 K, 101.3 kPa, x1 = 0.00036	0.817 mPa·s
303.15 K, 101.3 kPa, x1 = 0.0005398	0.821 mPa·s
308.15 K, 101 kPa, x1 = 0.000364	0.724 mPa·s and 0.7239 mPa·s
308.15 K, 101 kPa, x1 = 0.000657	0.728 mPa·s and 0.7282 mPa·s
308.15 K, 101 kPa, x1 = 0.0007676	0.7308 mPa·s
308.15 K, 101 kPa, x1 = 0.00125	0.738 mPa·s and 0.7377 mPa·s
308.15 K, 101 kPa, x1 = 0.00155	0.743 mPa·s and 0.7431 mPa·s
308.15 K, 101 kPa, x1 = 0.001665	0.7425 mPa·s
308.15 K, 101 kPa, x1 = 0.001856	0.748 mPa·s and 0.7477 mPa·s
308.15 K, 101 kPa, x1 = 0.002776	0.7609 mPa·s
308.15 K, 101 kPa, x1 = 0.005396	0.8018 mPa·s
308.15 K, 101 kPa, x1 = 0.006205	0.8139 mPa·s
308.15 K, 101 kPa, x1 = 0.009999	0.8791 mPa·s
308.15 K, 101.3 kPa, x1 = 0.0001803	0.733 mPa·s
308.15 K, 101.3 kPa, x1 = 0.00036	0.738 mPa·s
308.15 K, 101.3 kPa, x1 = 0.0005398	0.743 mPa·s
313.15 K, 101 kPa, x1 = 0.001798	0.6755 mPa·s and 0.6783 mPa·s
313.15 K, 101 kPa, x1 = 0.0018	0.6734 mPa·s
313.15 K, 101 kPa, x1 = 0.00359	0.6979 mPa·s
313.15 K, 101 kPa, x1 = 0.005375	0.7227 mPa·s and 0.7222 mPa·s
313.15 K, 101 kPa, x1 = 0.007154	0.7485 mPa·s and 0.7473 mPa·s
313.15 K, 101 kPa, x1 = 0.007156	0.7432 mPa·s
313.15 K, 101.3 kPa, x1 = 0.0001803	0.668 mPa·s
313.15 K, 101.3 kPa, x1 = 0.00036	0.671 mPa·s
313.15 K, 101.3 kPa, x1 = 0.0005398	0.676 mPa·s
318.15 K, 101 kPa, x1 = 0.000364	0.6 mPa·s and 0.5998 mPa·s
318.15 K, 101 kPa, x1 = 0.000657	0.604 mPa·s and 0.6039 mPa·s
318.15 K, 101 kPa, x1 = 0.0007676	0.6078 mPa·s
318.15 K, 101 kPa, x1 = 0.000952	0.608 mPa·s and 0.6081 mPa·s
318.15 K, 101 kPa, x1 = 0.00125	0.612 mPa·s and 0.6122 mPa·s
318.15 K, 101 kPa, x1 = 0.00155	0.616 mPa·s
318.15 K, 101 kPa, x1 = 0.001665	0.6147 mPa·s
318.15 K, 101 kPa, x1 = 0.001856	0.621 mPa·s
318.15 K, 101 kPa, x1 = 0.002776	0.6296 mPa·s
318.15 K, 101 kPa, x1 = 0.006205	0.6736 mPa·s
318.15 K, 101 kPa, x1 = 0.009999	0.725 mPa·s
323.15 K, 101 kPa, x1 = 0.001798	0.5655 mPa·s and 0.5637 mPa·s
323.15 K, 101 kPa, x1 = 0.0018	0.5616 mPa·s
323.15 K, 101 kPa, x1 = 0.00359	0.5832 mPa·s and 0.5805 mPa·s
323.15 K, 101 kPa, x1 = 0.005375	0.6022 mPa·s and 0.6013 mPa·s
323.15 K, 101 kPa, x1 = 0.007154	0.6221 mPa·s and 0.6216 mPa·s
323.15 K, 101 kPa, x1 = 0.007156	0.6179 mPa·s
